Data from patent US8022225B2, “Triazole derivative” (Taisho Pharmaceutical Co., Ltd, priority 2004, dated 2011).

Assays:
[1] = molecular target: T1, human Edg-1(S1P1) (Homo sapiens, UniProt P21453); assay: Cell system binding test: inhibition of [3H]-S1P binding to Edg-1(S1P1) gene transferred HEK-293 cells; details: 10 μM compound, [3H]-S1P 10 nM, read-out: Cell system binding test % inhibition (10 μM)
T1 construct: expressed in transfected cells; host or cells: HEK-293
Description: Cells (1×10^5 cells/well) obtained as described above were seeded in poly-L-lysine-coated 96-well plates (Corning Incorporated), and then incubated in a 5% carbon dioxide gas incubator for 12 hours at 37° C. with the use of an MEM medium (Invitrogen Corporation) containing 100 U/mL of penicillin, 100 μg/mL of streptomycin, a 1% MEM nonessential amino acid solution, and 10% FCS. […] After the cells were washed twice with the buffer, they were solubilized with 100 μL of Opti Phase Supermix (produced by Perkin-Elmer), and measured for radioactivity by means of Micro Beta (produced by Perkin-Elmer).
Inhibition rate(%)=[1−(A−C)/(B−C)]×100

[2] = molecular target: T1, human Edg-1(S1P1); assay: Membrane system binding test: inhibition of [33P]-S1P binding to the membrane fraction of Edg-1(S1P1) gene transferred HEK-293 cells; details: 10 μM compound; [33P]-S1P 0.1 nM; membrane fraction of Edg-1(S1P1) gene transferred HEK-293 cells; read-out: Membrane system binding test % inhibition (10 μM)
Description: The membrane fraction was obtained by treating the cells with a solubilizing buffer (1 mM Tris/HCl, pH 7.2) for 10 minutes on ice, centrifuging the system (1000×g, 5 min) to remove insoluble fractions, and then centrifuging the system (40000×g, 30 min, 4° C.). The resulting membrane fraction was dissolved in a binding buffer (20 mM Tris-HCl, pH 7.4, 100 mM NaCl, 15 mM NaF, 2 mM deoxypyridoxine, 4 mg/mL fatty acid-free BSA), and then [^33P]-S1P (produced by ARC, end concentration 0.1 nM) and a DMSO solution of the test compound (end concentration of the compound: 10^−5 M, end concentration of DMSO: 0.1%) were added, followed by stirring the mixture and subsequently treating it for 1 hour at 30° C. Using a harvester, the membrane fraction was harvested onto unifilter-96GF/C filter (produced by Perkin-Elmer). Then, the filter with the membrane fraction was washed 4 times with the binding buffer, and the filter was dried. To the filter, 25 μL Microscint 0 (produced by Perkin-Elmer) was added, and the assay system was measured for radioactivity by means of Top Count NXT (Packard). Based on the radioactivity, the amount (A) of binding of [^33P]-S1P to the membrane fraction upon addition of the compound was calculated.
The same procedure was performed in the absence of the test compound, and the amount (B) of binding of [^33P]-S1P was calculated. Moreover, the same procedure was performed in the absence of the test compound with the use of HEK-293 cells, to which the Edg-1(S1P1) gene had not been transferred, and the background amount (C) of binding of [^33P]-S1P was calculated.
The Edg-1(S1P1) binding inhibition rate of the compound, calculated from the following equation, is shown in […]

T1 sequence (P21453 whole entry): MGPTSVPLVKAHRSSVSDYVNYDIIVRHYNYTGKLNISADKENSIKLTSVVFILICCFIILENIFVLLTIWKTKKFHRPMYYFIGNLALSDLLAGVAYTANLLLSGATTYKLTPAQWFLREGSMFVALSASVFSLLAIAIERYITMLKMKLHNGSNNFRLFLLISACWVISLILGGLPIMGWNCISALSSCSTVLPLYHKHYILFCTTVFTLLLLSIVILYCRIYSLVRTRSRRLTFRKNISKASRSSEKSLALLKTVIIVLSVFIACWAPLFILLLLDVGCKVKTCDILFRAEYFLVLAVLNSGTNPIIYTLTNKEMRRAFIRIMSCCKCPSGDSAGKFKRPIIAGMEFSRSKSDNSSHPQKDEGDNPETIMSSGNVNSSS

Row | Compound | inhibition at 10 µM [1] | inhibition at 10 µM [2]
1 | CCn1c(SCCOc2ccccc2)nnc1[C@@H](C)NS(=O)(=O)c1ccc(Cl)cc1 [Compound 23] | 84.4% | 95%
2 | CCn1c(SCC(=O)OC)nnc1[C@@H](C)NS(=O)(=O)c1ccc(Cl)cc1 [Compound 24] | 82.6% | 60.6%
3 | CCn1c(SCC2CCCCC2)nnc1[C@@H](C)NS(=O)(=O)c1ccc(Cl)cc1 [Compound 25] | 81.5% | 77.8%
4 | CCn1c(SCCSC)nnc1[C@@H](C)NS(=O)(=O)c1ccc(Cl)cc1 [Compound 26] | 84% | 61.1%
5 | CC#CCSc1nnc([C@@H](C)NS(=O)(=O)c2ccc(Cl)cc2)n1CC [Compound 27] | 86.9% | 76%
6 | CCn1c(SCC=C(C)C)nnc1[C@@H](C)NS(=O)(=O)c1ccc(Cl)cc1 [Compound 28] | 93.1% | 82.8%
7 | CCCCSc1nnc([C@@H](C)NS(=O)(=O)c2ccc(Cl)cc2)n1CC [Compound 29] | 93% | 95.9%
8 | CCCCCCCCSc1nnc([C@@H](C)NS(=O)(=O)c2ccc(Cl)cc2)n1CC [Compound 30] | 91.9% | 100%
9 | CCn1c(SCC2CCO2)nnc1[C@@H](C)NS(=O)(=O)c1ccc(Cl)cc1 (stereo partly drawn) [Compound 31] | 90.2% | 90%
10 | CCn1c(SCc2ccccc2C)nnc1[C@@H](C)NS(=O)(=O)c1ccc(Cl)cc1 [Compound 32] | 89.1% | 99.1%
11 | CCn1c(SCC(C)C)nnc1[C@@H](C)NS(=O)(=O)c1ccc(Cl)cc1 [Compound 33] | 91.7% | 90%
12 | CCn1c(SCC2CCC2)nnc1[C@@H](C)NS(=O)(=O)c1ccc(Cl)cc1 [Compound 34] | 91.5% | 76.4%
13 | CCn1c(SCC2CCCCCCC2)nnc1[C@@H](C)NS(=O)(=O)c1ccc(Cl)cc1 [Compound 35] | 91.9% | 87.7%
14 | CCn1c(SC2CCc3ccccc3C2)nnc1[C@@H](C)NS(=O)(=O)c1ccc(Cl)cc1 (stereo partly drawn) [Compound 36] | 89.5% | 104%
15 | CCn1c(SCCOCc2ccccc2)nnc1[C@@H](C)NS(=O)(=O)c1ccc(Cl)cc1 [Compound 37] | 92.7% | 92.8%
16 | CCn1c(SC/C=C/c2ccccc2)nnc1[C@@H](C)NS(=O)(=O)c1ccc(Cl)cc1 [Compound 38] | 91.5% | 81%
17 | CCn1c(SCCCc2ccccc2)nnc1[C@@H](C)NS(=O)(=O)c1ccc(Cl)cc1 [Compound 39] | 93.8% | 86.7%
18 | CCn1c(SC(c2ccccc2)c2ccccc2)nnc1[C@@H](C)NS(=O)(=O)c1ccc(Cl)cc1 [Compound 40] | 87% | 46.1%
19 | CCn1c(SC(C)c2ccccc2)nnc1[C@@H](C)NS(=O)(=O)c1ccc(Cl)cc1 (stereo partly drawn) [Compound 41] | 87.3% | 97.3%
20 | CCn1c(SCc2ccccc2Cl)nnc1[C@@H](C)NS(=O)(=O)c1ccc(Cl)cc1 [Compound 42] | 85.4% | 98.8%
21 | CCn1c(SCc2c(Cl)cccc2Cl)nnc1[C@@H](C)NS(=O)(=O)c1ccc(Cl)cc1 [Compound 43] | 90.5% | 102%
22 | CCn1c(SCc2cccc(Cl)c2)nnc1[C@@H](C)NS(=O)(=O)c1ccc(Cl)cc1 [Compound 44] | 93% | 99.6%
23 | CCn1c(SCc2ccc(Cl)cc2)nnc1[C@@H](C)NS(=O)(=O)c1ccc(Cl)cc1 [Compound 45] | 91.7% | 91.3%
24 | CCn1c(SCc2ccc(C(F)(F)F)cc2)nnc1C(C)NS(=O)(=O)c1ccc(Cl)cc1 (stereo not drawn) [Compound 46] | 90.4% | 99.5%
25 | CCn1c(SCC(=O)c2ccccc2)nnc1[C@@H](C)NS(=O)(=O)c1ccc(Cl)cc1 [Compound 47] | 92.5% | 99.2%
26 | CCn1c(SCc2cccc3ccccc23)nnc1[C@@H](C)NS(=O)(=O)c1ccc(Cl)cc1 [Compound 48] | 93% | 101%

Row | Compound | inhibition at 10 µM [1] | inhibition at 10 µM [2]
27 | CCn1c(SC2CCOC2)nnc1[C@@H](C)NS(=O)(=O)c1ccc(Cl)cc1 (stereo partly drawn) [Compound 49] | 94.8% | 93.9%
28 | CCn1c(SC/C=C\COCc2ccccc2)nnc1[C@@H](C)NS(=O)(=O)c1ccc(Cl)cc1 [Compound 50] | 95.3% | 96.2%
29 | CCn1c(SC2CCc3ccccc32)nnc1[C@@H](C)NS(=O)(=O)c1ccc(Cl)cc1 (stereo partly drawn) [Compound 51] | 91.2% | 93%
30 | CCn1c(SC(C(=O)OC)c2ccccc2)nnc1[C@@H](C)NS(=O)(=O)c1ccc(Cl)cc1 (stereo partly drawn) [Compound 52] | 93.6% | 89.1%
31 | CCSc1nnc([C@@H](C)NS(=O)(=O)c2ccc(Cl)cc2)n1CC [Compound 53] | 90.8% | 89.3%
32 | CCn1c(SC(C)C)nnc1[C@@H](C)NS(=O)(=O)c1ccc(Cl)cc1 [Compound 54] | 88.7% | 105%
33 | CCn1c(SC2CCC2)nnc1[C@@H](C)NS(=O)(=O)c1ccc(Cl)cc1 [Compound 55] | 94.3% | 104%
34 | CCn1c(SCc2ccc(C#N)cc2)nnc1[C@@H](C)NS(=O)(=O)c1ccc(Cl)cc1 [Compound 56] | 87.1% | 91%
35 | CCn1c(SCC(F)F)nnc1[C@@H](C)NS(=O)(=O)c1ccc(Cl)cc1 [Compound 57] | 92.6% | 100%
36 | CCn1c(SCc2ccc(C(=O)OC)cc2)nnc1[C@@H](C)NS(=O)(=O)c1ccc(Cl)cc1 [Compound 58] | 91.9% | 98.1%
37 | CCn1c(SCc2ccc(C)cc2)nnc1[C@@H](C)NS(=O)(=O)c1ccc(Cl)cc1 [Compound 59] | 93.2% | 96.9%
38 | CCn1c(SCc2ccc(SC)cc2)nnc1[C@@H](C)NS(=O)(=O)c1ccc(Cl)cc1 [Compound 60] | 90.3% | 97.2%
39 | CCn1c(SCCc2ccccc2)nnc1[C@@H](C)NS(=O)(=O)c1ccc(Cl)cc1 [Compound 61] | 95% | 98.9%
40 | CCn1c(SCCc2ccccn2)nnc1[C@@H](C)NS(=O)(=O)c1ccc(Cl)cc1 [Compound 62] | 92.9% | 90.6%
41 | CCn1c(SCc2ccccn2)nnc1[C@@H](C)NS(=O)(=O)c1ccc(Cl)cc1 [Compound 63] | 93.7% | 99.7%
42 | CCn1c(SCc2ccncc2)nnc1[C@@H](C)NS(=O)(=O)c1ccc(Cl)cc1 [Compound 64] | 91.3% | 86.5%
43 | CCn1c(SCC2CCCN(C)C2)nnc1[C@@H](C)NS(=O)(=O)c1ccc(Cl)cc1 (stereo partly drawn) [Compound 65] | 83.3% | 83.1%
44 | CCn1c(SCCCCCCN(C)C)nnc1[C@@H](C)NS(=O)(=O)c1ccc(Cl)cc1 [Compound 66] | 84% | 90.6%
45 | CCn1c(SCCCN(C)C)nnc1[C@@H](C)NS(=O)(=O)c1ccc(Cl)cc1 [Compound 67] | 73.8% | 42.2%
46 | CCn1c(SCCCc2ccncc2)nnc1[C@@H](C)NS(=O)(=O)c1ccc(Cl)cc1 [Compound 68] | 93% | 97.9%
47 | CCn1c(SCCc2ccncc2)nnc1[C@@H](C)NS(=O)(=O)c1ccc(Cl)cc1 [Compound 69] | 89.5% | 92.7%
48 | CCn1c(SC2CCN(C)CC2)nnc1[C@@H](C)NS(=O)(=O)c1ccc(Cl)cc1 [Compound 70] | 88.4% | 98%
49 | CCn1c(SCc2cccc(N(C)C)c2)nnc1[C@@H](C)NS(=O)(=O)c1ccc(Cl)cc1 [Compound 71] | 89.7% | 104%
50 | CCn1c(SCC2CCN(Cc3ccccc3)CC2)nnc1[C@@H](C)NS(=O)(=O)c1ccc(Cl)cc1 [Compound 72] | 89.8% | 95.8%
51 | CCn1c(SCCN2CCNC2=O)nnc1[C@@H](C)NS(=O)(=O)c1ccc(Cl)cc1 [Compound 73] | 93.9% | 98.4%
